Where no end group is shown, it is not given here. [ ]: non-standard residue; d: D form. βAsp(indolinyl) = β-Asp(indolinyl) N-terminal residue

In one assay the test system is neurogenic inflammation. Particulars: sodium salicylate 250 mg/kg i.v.; amidopyridine 200 mg/kg p.o.; phenylbutazone 100 mg/kg i.v.; flufenamic acid 20 mg/kg i.v.; indomethacin 10 mg/kg p.o.; cited from earlier work.
For assay [1], the system named is Wistar rats. Description: 1% mustard oil-induced neurogenic inflammation (Evans blue plasma extravasation, foot skin). The class given is in vivo, rat. Particulars: for Decrease % (Evans blue extravasation vs control) / Evans blue extravasation: 20 μg/kg i.p.; for Decrease % (Evans blue extravasation vs control): 1% mustard oil; for Evans blue extravasation: 1% mustard oil on feet, control 169.525; for inhibition of mustard oil-induced neurogenic inflammation (in words): 20 μg/kg, 20 minutes after i.p. administration. The protocol:
Thirty minutes after acute bilateral denervation of the lower limbs (transsection of the saphenous and sciatic nerves), 50 mg/kg of Evans blue dye was administered to the tail vein of nembutal-anaesthetized (pentobarbital, 40 mg/kg i.p.) Wistar rats (150-220 g body weight; 5 to 7 animals in each group). […] The mustard oil induces a so-called neurogenic inflammation by the selective stimulation of the peripheral endings of CSPAN's and by releasing the mediators being present therein (chiefly tachykinins and CGRP); this neurogenic inflammation appears as a vasodilatation in the area of arterioles and in the form of a plasma extravasation at the venular side. Since the dye Evans blue is bound to serum albumin in the vascular bed, its precipitation and accumulation in the upper skin surface of foot are proportional to the extent of plasma extravasation. Thus, the quantitative determination of intensity of the inflammation becomes possible. After the painting with mustard oil, the animals were bled, the foot dorsum skins were cut out and their weights were determined. The amount of dye extracted during 72 hours of incubation in formamide was determined at 620 nm on a spectrophotometer (Spectromon 195). The amount (expressed as μg) of the extravasated Evans blue related to one g of wet tissue was calculated by means of the following formula:
Evans blue (μg/g)=E×V×k/m
E is the light absorption of the solution, V means the volume (ml) of the solution, m is the weight […] of the skin cut out from the foot dorsum skin; and k is a constant determined on the basis of a dilution series, which is characteristic of the dye solution.

Assay [2] deals with Wistar rats. Description: 0.5% dextran-induced non-neurogenic inflammation (foot swelling, plethysmometer) after chronic denervation. The assay is classed as in vivo, rat. The protocol: This test is based on the fact that a non-neurogenic, so-called clearly chemical inflammation can be induced by chemical excitation (e.g. by dextran, carrageenin, formalin) on a chronically denervated body area at least 5 days following the transsection of the nerve. These chemical agents release inflammation-inducing substances (histamine, bradykinin, PAF, prostaglandins and leucotrienes) from immunocytes, chiefly from mast cells.
Dextran solution (0.1 ml, 0.5%) is administered into both feet, underneath the plantar skin of Wistar rats (5 to 7 animals in each group) anaesthetized by nembutal (40 mg/kg i.v.) 5 days after bilateral denervation (transsection of the saphenous and sciatic nerves) of the lower limbs. The pretreated animals received somatostatin (SS), ocreotide or TT-232 (10 μg/kg i.p.) 10 minutes earlier. Before the administration of dextran (0 minute value), then after 10, 20 and 30 minutes, respectively, the swelling of the feet was measured by using a plethysmometer (Ugo Basil). Dextran elicits the so-called clearly chemical inflammation in the feet deprived of nerve supply (innervation) through the transmitters released from the mast cells.
A dose/effect ratio was determined for each substance.

The subject of assay [3] is Wistar rats. Briefly: Analgetic action: vegetative (pseudoaffective) reflex responses to mustard oil and capsaicin under urethane anaesthesia. The assay is classed as in vivo, rat. The arrangement: Increase in heart rate: unit not given here. To be noted: 10 μg/kg i.p. From the text:
This test is based on the synchronous registration of several components of so-called pseudoaffective reflex responses, which can be induced on animals by pain-producing stimuli [Lim, R. K. S.: J. Comp. Neurol 118, 269-294 (1962)] under urethane anaesthesia.
A significant blood pressure increase of 45 mmHg as an average pressor response, heart rate increase of 85 (as an average) and hyperpnoea (the number of respirations increases by 61 per minute as an average) can be observed in control animals on the effect of strong chemonociceptive stimuli (painting of the lower limbs with 1% mustard oil or dropping a capsaicin solution of 100 μg/ml concentration into the eye) under urethane anaesthesia.
The blood pressure, heart rate and respiration of intact Wistar rats (5 to 7 animals in each group, with a body weight of 250 to 350 g) were continuously registered for 40 minutes through an arterial cannula as well as double ramifying trachea cannula. Ten minutes before beginning the measurement, the pretreated animals received intraperitoneally 10 μg/kg of somatostatin (SS), octreotide or TT-232, respectively. Both lower limbs of the animals were painted with mustard oil in the 3rd minute and capsaicin solution was dropped into their eyes in the 23rd minute. The vegetative responses given on these nociceptive stimuli were evaluated by using a specific computer program.

The mark [4] stands for this setting: Table 2.a, 10 mg/kg, 10 minutes.
Setting [5] is: Table 2.a, 10 mg/kg, 30 minutes.

With `O=C([O-])c1ccccc1O.[Na+]` [sodium salicylate], the “significant inhibitory effect on neurogenic inflammation” value (shortened to “significant inhibitory effect”) in the assay with neurogenic inflammation is recorded as “none”.
For the compound “D-Phe-Cys-Tyr-Gly-Lys-Cys-Thr-NH2 ([dF]CYGKCT-NH2; cysteine pairing not given here) [VZ-1021]”, in the assay with Wistar rats [1], the “Decrease % (Evans blue extravasation vs control)” value (“Decrease %” for short) came to 54.72%, the Evans blue extravasation came to 76.72 µg/g and the “inhibition of mustard oil-induced neurogenic inflammation (in words)” value (“inhibition … (in words)” for short) is on record as “significantly inhibited”.
On to `O=C(O)c1ccccc1Nc1cccc(C(F)(F)F)c1` [flufenamic acid], for which the “significant inhibitory effect” value in the assay with neurogenic inflammation is on record as “none”.
`Cc1cnc(NC(=O)C2=C(O)c3ccccc3S(=O)(=O)N2C)s1` [Meloxicam, reference compound]: the foot swelling % in the assay on Wistar rats [2] (Table 2.a, 0.2 mg/kg, 10 minutes) came to 27.60 ± 3.56%; in the assay on Wistar rats [2] (Table 2.a, 0.2 mg/kg, 20 minutes) it was 39.99 ± 3.65%; in the assay with Wistar rats [2] (Table 2.a, 0.2 mg/kg, 30 minutes), 45.81 ± 2.9%; in the assay with Wistar rats [2] (Table 2.a, 0.5 mg/kg, 10 minutes), 27.24 ± 3.56%; in the assay with Wistar rats [2] (Table 2.a, 0.5 mg/kg, 20 minutes), 38.86 ± 2.86%; in the assay with Wistar rats [2] (Table 2.a, 0.5 mg/kg, 30 minutes), 44.92 ± 2.99%. Also, the foot swelling % turned out to be 24.34 ± 2.57% in the assay on Wistar rats [2] (Table 2.a, 1 mg/kg, 10 minutes); 36.46 ± 3.44% in the assay on Wistar rats [2] (Table 2.a, 1 mg/kg, 20 minutes); 46.63 ± 3.2% in the assay with Wistar rats [2] (Table 2.a, 1 mg/kg, 30 minutes); 20.39 ± 2.26% in the assay with Wistar rats [2] (setting [4]); 33.36 ± 1.85% in the assay with Wistar rats [2] (Table 2.a, 10 mg/kg, 20 minutes); 39.34 ± 3.75% in the assay with Wistar rats [2] (setting [5]).
For “D-Phe-Cys-Tyr-D-Trp-Lys-Cys-Trp-NH2 ([dF]CY[dW]KCW-NH2; cysteine pairing not given here) [VZ-924]”, in the assay on Wistar rats [1], the “Decrease %” value was determined as 55.62%, the Evans blue extravasation was determined as 75.26 µg/g and the “inhibition … (in words)” value was “significantly inhibited”.
“D-Phe-Cys-Tyr-D-Trp-Gly-Cys-Thr-NH2 ([dF]CY[dW]GCT-NH2; cysteine pairing not given here) [VZ-934]”: in the assay with Wistar rats [1], the “Decrease %” value turned out to be 44.7%, the Evans blue extravasation stood at 93.7 µg/g and the “inhibition … (in words)” value is on record as “significantly inhibited”.
In the case of `O=C(O)Cc1ccccc1Nc1c(Cl)cccc1Cl` [Diclofenac, reference compound], the foot swelling % with Wistar rats [2] (Table 2.a, 5 mg/kg, 20 minutes) amounted to 48.73 ± 4.84%; in the assay with Wistar rats [2] (Table 2.a, 5 mg/kg, 30 minutes) it was 53.07 ± 3.95%; in the assay on Wistar rats [2] (setting [4]), 24.35 ± 3.31%; in the assay with Wistar rats [2] (setting [5]) it was 42.61 ± 3.55%; in the assay on Wistar rats [2] (Table 2.a, 20 mg/kg, 10 minutes), 21.87 ± 2.84%; with Wistar rats [2] (Table 2.a, 30 mg/kg, 10 minutes), 26.02 ± 1.79%. In the assay with Wistar rats [2] (Table 2.a, 30 mg/kg, 30 minutes), this compound had a foot swelling % of 40.20 ± 1.73%.
Regarding `C[C@@H](O)[C@@H]1NC(=O)[C@H](CCCCN)NC(=O)[C@@H](Cc2c[nH]c3ccccc23)NC(=O)[C@H](Cc2ccccc2)NC(=O)[C@@H](NC(=O)[C@H](N)Cc2ccccc2)CSSC[C@@H](C(=O)N[C@H](CO)[C@@H](C)O)NC1=O` [Octreotide, reference compound], in the assay with Wistar rats [3] (10 minutes before mustard oil), the “protection against pseudoaffective reflex triad elicited by mustard oil and capsaicin (in words)” value was “completely inactive”. Besides, the “Increase in respiration rate” value in the assay with Wistar rats [3] (after dropping capsaicin solution into the eye, control 47.5) is given as 42 per minute; in the assay with Wistar rats [3] (after painting the feet by mustard oil, control 60.75), 45 per minute. Moreover, the “Increase in mean arterial pressure” value in the assay on Wistar rats [3] (after dropping capsaicin solution into the eye, control 55) was 47.13 mmHg; in the assay with Wistar rats [3] (after painting the feet by mustard oil, control 45.4) it was 43.2 mmHg. In addition, the “Increase in heart rate” value in the assay on Wistar rats [3] (after dropping capsaicin solution into the eye, control 143) is 127; in the assay on Wistar rats [3] (after painting the feet by mustard oil, control 84.8), 81.2. For the same compound, in the assay with Wistar rats [2] (10 μg/kg, even 40 minutes following the pretreatment), the “prevention of dextran-induced non-neurogenic inflammation (in words)” value was “completely inactive”. Besides, the foot swelling % in the assay with Wistar rats [2] (Table 2, 10 μg/kg i.p. 10 min before dextran, 10 minutes, control 32.97) worked out at 31.36%; in the assay on Wistar rats [2] (Table 2, 10 μg/kg i.p. 10 min before dextran, 20 minutes, control 49.695) it was 47.7%; in the assay on Wistar rats [2] (Table 2, 10 μg/kg i.p. 10 min before dextran, 30 minutes, control 56.68), 54.8%. For the same compound, the “Decrease %” value with Wistar rats [1] stood at 3.952%. The compound further displayed an Evans blue extravasation with Wistar rats [1] of 162.826 µg/g. For the same compound, in the assay with Wistar rats [1], the “inhibition … (in words)” value is “inactive”.
On to “β-Asp(indolinyl)-Cys-Tyr-D-Trp-Lys-Cys-Thr-NH2 ({βAsp(indolinyl)}-CY[dW]KCT-NH2; cysteine pairing not given here) [VZ-927]”, for which, in the assay on Wistar rats [1], the “Decrease %” value is on record as 60.44%, the Evans blue extravasation is 67.07 µg/g and the “inhibition … (in words)” value is given as “significantly inhibited”.
For the compound `O=C(NN=Cc1ccc(O)c(O)c1)C(=O)Nc1cccc([N+](=O)[O-])c1` [HDL 2722, 3′-nitrophenylamino-2-oxoacetyl-3″,4″-dihydroxyphenyl-hydra-zone], in the assay on Wistar rats [1] (50 μg), the “inhibition of 1% mustard oil-induced neurogenic inflammation (plasma extravasation)” value was determined as 62%.
Consider `Cc1c(N(C)C)c(=O)n(-c2ccccc2)n1C` [amidopyridine], for which the “significant inhibitory effect” value in the assay with neurogenic inflammation was “none”.
Regarding `COc1ccc2c(c1)c(CC(=O)O)c(C)n2C(=O)c1ccc(Cl)cc1` [indomethacin], the “significant inhibitory effect” value with neurogenic inflammation is on record as “none”.

The values are drawn from patent US6689813B2 (Biostatin Gyogyszerkutato-Fejleszto kft., priority 1998, dated 2004).
